Experimental data as given in patent publication US10556926B2, “Synthetic artificial peptides with antimicrobial effect” (priority 2014, dated 2020).
Like-named read-outs stand apart in the source and are kept apart here. No end group written: not given here.

Columns and labels:
E. coli ML-35p [1] = experiment: Kinetics of permeabilization of the outer bacteria membrane (nitrocefin); format: cell-based, Escherichia coli
Description: (§1) The ability of the antimicrobial peptides for the respective permeabilization of the outer and inner bacteria membrane was tested by way of example on E. coli ML-35p (made available by Dr. R. E. Lehrer, Center for Health Sciences, Los Angeles, Calif., USA). The peptides were incubated in serial dilution with E. coli ML-35p and the time-dependent release of cell-internal components was measured in a slightly modified protocol according to Ericsson et al. (2002). For this purpose, the bacteria were cultured in Luria-Bertani (LB) medium with 100 μg/ml ampicillin (Fluka, Taufkirchen, Germany) until reaching an optical density of 0.4 at 600 nm wavelength. Then, the cells were washed three times by centrifugation at 4000 g for 1 min and subsequent up-take in 10 mM HEPES buffer pH 7.2. Finally, the cells were diluted to an optical density of 0.3 at 600 nm wavelength. To measure the permeabilization of the outer membrane, nitrocefin (Merck, Darmstadt, Germany) was diluted in HEPES buffer to a concentration of 60 μg/ml. The antimicrobial peptides were diluted in HEPES buffer to an end concentration of 12 μM, 24 μM, 48 μM and 96 μM end concentration. In the next step, 50 μl of nitrocefin were admixed with 50 μl of antimicrobial peptide and 50 μl of bacteria suspension such that an end concentration of 20 μg/ml of nitrocefin, 4 μM to 32 μM of antimicrobial peptide and bacteria with an optical density of 0.1 to 600 nm were present. The samples were mixed and the absorption at 500 nm wavelength was measured directly over a period of at least 90 min at 37° C. with regular shaking in a FLUOstar omega Microplate Reader (BMG Labtech, Ortenberg, Germany). The investigation of the permeabilization of the inner membrane was carried out in the same way except that instead of the nitrocefin accordingly 0-nitrophenyl-beta-D-galactoside (ONPG, Sigma-Aldrich) in an end concentration of 100 μg/ml was used and the absorption change was determined at a wavelength of 420 nm. The control used was samples without antimicrobial peptide, the positive control used for the membrane permeabilization was polymyxin B (Sigma-Aldrich) in an end concentration of 5 μM. For the data evaluation, firstly the measurement values of the corresponding negative controls were deducted from the measurement values of the samples, and the difference was then divided by the corresponding measurement values of the permeabilization control. Then, a graphical evaluation was carried out, the calculated values being plotted against the peptide concentration and being fitted with the help of the Origin Pro 8.1 G Software (OriginLab) according to a sigmoidal model.
(§2) As comparison parameter between the peptides, the times were ascertained from this at which 50% of the final signal level was reached. For this purpose, the equation with the percentage membrane permeabilization y, the time x in minutes, the lower plateau A1, the upper plateau A2, the point of inflection Log X0 and the Hill incline p
(§3) [formula] was used. The calculation of the parameters A1, A2, Log X0 and p was performed by the program by reference to the compensating curve. Further resolution of equation 5.1 for the case y=50 then produced for x the desired time at which the half-maximum signal level was reached.

E. coli ML-35p [2] = experiment: Kinetics of permeabilization of the inner bacteria membrane (ONPG); format: cell-based, Escherichia coli
Description: as §1, with “model. As representative examples, FIGS. 4 and 5 show the graphical evaluation for the kinetic investigation of the permeabilization of the outer E. coli bacteria membrane for the peptides N4 (FIG. 4) and O1 (FIG. 5).” for “model.”
as §2, §3

[3] = tested on: human histiocytic lymphoma cell line U937; experiment: Long-term growth inhibition, minimum toxic concentration (MTC)
Description: The cytotoxic potential of the antimicrobial peptides was determined by way of example by reference to the human histiocytic lymphoma cell line U937 (DSMZ). The influence of the peptides on the permeability of the cell membrane and their longer-term growth-inhibiting effect was investigated. 15 ml of RPMI 1640 medium with 2 mM glutamine and 10% FCS (Biochrom, Berlin, Germany) were inoculated with 1·10^5 cells per ml and cultivated for three days at 37° in T75 cell culture bottles (TPP, Trasadingen, Switzerland) with constant gassing with 5% CO2 in a climatically controlled chamber. The medium was admixed with 10 U/ml penicillin and […] streptomycin (both AppliChem, Darmstadt, Germany) to avoid bacterial contaminations, with no further antibiotics being added during the subsequent recultivation. Before each experiment, the cells were washed by centrifugation at 100 g for five minutes and subsequent resuspension in RPMI 1640 medium with 2 mM glutamine and 10% FCS in each case two times and adjusted to a concentration of 1·10^5 cells per ml. Finally, in each case 100 μl of the U937 cells were transferred to the reaction chambers of a sterile 96-well polypropylene microtiter plate and admixed with in each case 100 μl of a prediluted antimicrobial peptide in RPMI 1640 medium without antibiotic addition, such that end concentrations of in each case 5·10^4 cells per ml at peptide concentrations between 0.25 μM and 64 μM were present. The negative control used was samples without antimicrobial peptide, while Triton X-100 (AppliChem) was used in an end concentration of 5% as positive control for the permeabilization. The samples were cultivated for two hours at 37° C. and with continuous gassing with 5% CO2 in a climatically controlled chamber. Then, in each case 100 μl of each sample were removed and transferred to new sterile microtiter plates for determining the direct membrane damage. The remaining 100 μl of the samples were cultivated for at least four further days.
For this purpose, 10 μl of lysing solution were added to in each case 100 μl of cell suspension and incubated for 60 minutes at 37° C. Then, the cell culture supernatants were investigated as described above. The lowest peptide concentration at which complete suppression of the cell growth was established after four days was stipulated as the minimum toxic concentration (MTC).

[4] = tested on: human histiocytic lymphoma cell line U937; experiment: Cytotoxicity, direct membrane damage (CytoTox 96), LD50; format: cell-based; settings: U937, two hours at 37° C., 0.25-64 μM
Description: The direct membrane damage was investigated with the help of the CytoTox 96 Non-Radioactive Cytotoxicity Assay (Promega, Mannheim, Germany). For this purpose, the cells were sedimented at 100 g for ten minutes at 4° C., and 50 μl of the resulting culture supernatant were added to 50 μl of the CytoTox substrate mix. After an incubation time of 30 minutes in the dark at room temperature, 50 μl of the CytoTox stopping solution were added to the sample and the absorption was measured at 490 nm. To determine the LD50 value, the measurement value of the negative control was deducted from the absorption values and divided by the measurement value of the permeabilization control. The calculated values were plotted graphically against the peptide concentration and fitted using the Origin pro 8.1 G Software according to a sigmoidal model and the LD50 values were ascertained from this. The calculation was carried out analogously to example 5 by reference to the solution of equation 5.1 for the case y=50, where y in this case corresponds to the relative cytotoxicity in percent and x corresponds to the peptide concentration in μM. Representative graphical evaluations of LD50 values are shown in FIG. 6 by reference to the measurement results for the reference peptides BMAP-27, protamine and KL-helix, and also the peptide O1 according to the invention.

Staphylococcus xylosus = settings: 18 h
Description: (§4) The minimum inhibitory concentration (MIC) of the peptides was carried out by way of example against gram(−) E. coli DH5α (and gram(+) Staphylococcus xylosus (both Deutsche Sammlung von Mikroorganismen and Zellkulturen, DSMZ) in a standardized microdilution method according to the general guidelines of the CLSI (Clinical and Laboratory Standards Institute 2006) and EUCAST (European Committee for Antimicrobial Susceptibility Testing of the European Society of Clinical Microbiology and Infectious Diseases 2003) with slight adaptations to the investigation of cationic antimicrobial peptides (Wiegand et al. 2008). The bacteria cells were cultivated in Mueller-Hinton-Boullion (MHB) to an optical density of 0.4 to 0.6 at 600 nm wavelength, corresponding to about 4·10^8 bacteria per ml. Then, the bacteria cultures were diluted to a bacteria concentration of about 1·10^5 bacteria per ml in sterile MHB. Using the peptides, series of 2-fold dilutions starting at 128 μM to the smallest dilution of 0.5 μM in MHB were prepared. The peptide dilutions were mixed with the dilute bacteria cultures in a […] in the chambers of a 96-well polypropylene microtiter plate (Starlab, Hamburg, Germany), so that the peptides were present in an end concentration between 64 μM and 0.25 μM at a bacteria concentration of 5·10^4 bacteria/ml. Sterile MHB served as negative control, and the positive control used as the corresponding bacteria concentration in MHB without the addition of peptide. The microtiter plates were incubated for 18 hours at 37° C. with shaking at 120 rpm in a climatically controlled chamber. After the incubation, the bacteria concentration was determined by renewed absorption measurement at a wavelength of 600 nm.

E. coli DH5α = settings: DH5α, 18 h
Description: as §4

Substance	Toxicity LD50 [4] [µM]	MIC S. xylosus (Staphylococcus xylosus) [µM]	MIC E. coli (E. coli DH5α) [µM]	Toxicity MTC (minimum toxic concentration) [3] [µM]	other results
GRFKRFRKKFKKLFKKLSPVIPLLHLG-OH [BMAP-27]					Outer membrane, time to 50% of final signal (E. coli ML-35p [1]; 4 μM peptide): <1 min; Outer membrane, time to 50% of final signal (E. coli ML-35p [1]; 8 μM peptide): <1 min; Outer membrane, time to 50% of final signal (E. coli ML-35p [1]; 16 μM peptide): <1 min; Outer membrane, time to 50% of final signal (E. coli ML-35p [1]; 32 μM peptide): <1 min; Inner membrane, time to 50% of final signal (E. coli ML-35p [2]; 4 μM peptide): 16 min; Inner membrane, time to 50% of final signal (E. coli ML-35p [2]; 8 μM peptide): 9 min; Inner membrane, time to 50% of final signal (E. coli ML-35p [2]; 16 μM peptide): 7 min; Inner membrane, time to 50% of final signal (E. coli ML-35p [2]; 32 μM peptide): 5 min; Toxicity MTC (minimum toxic concentration) ([3]; U937, complete suppression of cell growth after four days): 4.0 µM
GSGILILIKRK [M5]	>64	>64	>64	>64	
KRKIKRK [H5, KRKIKRK]	>64	>64	>64	>64	
KRKILILILIL [M2]	>64	>64	>64	>64	
LILKRKRKRKRILI [A5]	>64	>64	>64	>64	
ILIKRK [N7, ILIKRK]	>64	>64	>64	>64	
KKKKKIIIIIDDDDD [D1]	>64	>64	>64	>64	
KRKGKRK [H7, KRKGKRK]	>64	64	>64	>64	
KRKILILIK [C4]	>64	8	32	>64	
LILIKRK [N6, LILIKRK]	>64	>64	>64	>64	
KRKLILIKRK [H2]	>64	16	>64	>64	
